Data taken from patent US12697328B2, “Methods for treating metastasis with cathepsin C inhibitors” (Shanghai Institute of Nutrition and Health, Chinese Academy …, priority 2020, dated 2026).

How the values were obtained:
neutrophils [1] = assay: Neutrophil recruitment by cancer cell conditioned medium (Transwell chambers); type: cell-based, mice; conditions: CM of liver-metastatic breast cancer and bone-metastatic lung cancer cells, with or without brensocatib; FIGS. 11G, J
Method: (§1) To isolate neutrophil from bone marrow, bone marrow cells from 8 to 12-weeks-old BALB/c mice were harvested in sterile Hank's buffered salt solution (HBSS) without Ca^2+/Mg^2+ (14185052, Invitrogen), and laid on top of a 2-layer Percoll (17089102, GE Healthcare) gradient (72% and 63.5% in HBSS), followed by centrifugation at 1,200 g for 30 min at 25° C. Neutrophils enriched in the interface of 63.5%-72% fractions were confirmed to be of >95% purity by flow cytometry analysis. To isolate neutrophils from peripheral blood of mice, whole blood was collected via cardiac puncture (1 ml per animal) and suspended in HBSS (2 ml per animal) with 15 mM EDTA. After centrifugation (400 g, 10 min, 4° C.), white cells were resuspended in 2 ml HBSS with 2 mM EDTA. Then, the cells were centrifuged (1500 g, 30 min, room temperature) in a three-layer Percoll gradient (78%, 69%, and 52%) without braking. […] The purity of the isolated neutrophils was determined by May-Grunwald-Giemsa staining (40751ES02, Yea-sen). […]
The procedure of two-chamber migration assays was previously described (Zhuang et al., “Differential effects on lung and bone metastasis of breast cancer by Wnt signalling inhibitor DKK1,” Nat. Cell Biol. 19:1274-1285 (2017)). […] The migrated cells in the lower chamber were counted after 3 h. […]

neutrophils [2] = assay: Formation of NETs in neutrophils stimulated by cancer cell conditioned medium (immunofluorescence, MPO and Ci-H3); type: cell-based, mice; conditions: CM of lung-/liver-metastatic breast cancer and bone-metastatic lung cancer cells, with or without brensocatib; FIGS. 11D, F, I
Method: as §1, with “EDTA.” for “EDTA. Then, the cells were centrifuged (1500 g, 30 min, room temperature) in a three-layer Percoll gradient (78%, 69%, and 52%) without braking.”
To assess NET formation, neutrophils (2.5×10^5 cells) were seeded on coverslips coated with poly-L-lysine (P4707, Sigma) in 24-well plates for 30 min before adding 10% cancer cell CM, Sivelestat (10 μM), PMA (20 nM, Sigma), Cl-amidine (100 μM, Selleck) and/or DNase I (1 μg/ml). […] NET area quantification was performed using the DANA method (Rebernick et al., “DNA area and NETosis analysis (DANA): a high-throughput method to quantify neutrophil extracellular traps in fluorescent microscope images,” Biol. Proced. Online 20:7 (2018)). […]

## Cn1c(=O)oc2ccc(-c3ccc(C[C@@H](C#N)NC(=O)[C@@H]4CNCCCO4)cc3)cc21 [brensocatib, (2S)—N-{(1S)-1-cyano-2-[4-(3-methyl-2-oxo-2,3-dihydro-1,3-benzoxazol-5-yl)phenyl]ethyl}-1,4-oxazepane-2-carboxamide]
Neutrophils [1]
  neutrophil recruitment: significantly reduced
Neutrophils [2]
  formation of NETs: significantly reduced
